# Assay results from US4820695A, “C-20-dihydro-deoxy-(cyclic amino)-derivatives of macrolide antibiotics” (priority 1987, dated 1989).
# Like-named read-outs stand apart in the source and are kept apart here.
# Columns and labels:
# [1] = tested on: Streptococcus Group D X66; experiment: MIC, standard agar-dilution assay (Table IX); format: cell-based
# [2] = Titratable groups in 66% aqueous DMF (Tables XIV-XVI); format: physicochemical
# Excerpt: ^c Run in 66% aqueous DMF
# ^d Run in 66% aqueous DMF
# Pasteurella multocida = experiment: Pasteurella infection in one-day-old chicks, subcutaneous administration (Table XII); format: in vivo; conditions: Administered subcutaneously, 30 mg/kg × 2, 1 and 4 hours post-challenge
# Method: Many of the C-20 modified derivatives of this invention have also shown in vivo antibacterial activity against infections induced by gram-negative bacteria. Tables XII and XIII summarize the results of tests in which illustrative compounds were evaluated against a Pasteurella infection in one-day-old chicks. The compounds were administered parenterally or orally after challenge of the chicks with Pasteurella multocida (0.1 ml of a 10^-4 dilution of a twenty-hour tryptose broth culture of an avian P. multocida given subcutaneously). In these tests, unless indicated otherwise, all non-medicated infected chicks died within 24 hours of Pasteurella challenge. In the tests summarized in Table XII, the compounds were administered by subcutaneous injection at a dosage of 30 mg/kg, 1 and 4 hours post-challenge of the chicks with P. multocida. In the tests summarized in Table XIII the compounds were administered in medicated drinking water (at a level of 2 g/gal) available from 4 to 20 hours prior to challenge of the chicks with P. multocida and during the 3 -day test period.
# ^a Administered subcutaneously; 30 mg/kg × 2
# [3] = tested on: Staphylococcus aureus S13E; experiment: MIC, standard agar-dilution assay (Table IX); format: cell-based
# [4] = tested on: Streptococcus pyogenes C203; experiment: ED50 in mice experimentally infected with S. pyogenes C203 (Table XI); format: in vivo; conditions: Streptococcus pyogenes, doses given 1 and 4 hours postinfection, read-out: ED50
# Method: The C-20 modified derivatives of this invention have shown in vivo antimicrobial activity against experimentally-induced infections in laboratory animals. When two doses of test compound were administered to mice experimentally infected with S. pyogenes C203, the activity observed was measured as an ED50 value [effective dose in mg/kg to protect 50% of the test animals: see Warren Wick, et al., J. Bacteriol. 81, 233-235 (1961)].
# ^a mg/kg × 2; doses given 1 and 4 hours postinfection
# [5] = tested on: Mycoplasma hyopneumoniae S5972; experiment: MIC, broth-dilution microtiter test (Table X); format: cell-based
# Excerpt: (§1) The MIC's in Table X were obtained using conventional broth-dilution microtiter tests.
# [6] = tested on: Pasteurella multocida 60A; experiment: MIC, broth-dilution microtiter test (Table X); format: cell-based; conditions: Avian isolate
# Excerpt: as §1
# Mycoplasma hyorhinis 29E = experiment: MIC, broth-dilution microtiter test (Table X); format: cell-based
# Excerpt: as §1
# Staphylococcus aureus = experiment: MIC, broth-dilution microtiter test (Table X); format: cell-based
# Excerpt: as §1
# Mycoplasma synoviae 40A = experiment: MIC, broth-dilution microtiter test (Table X); format: cell-based
# Excerpt: as §1
# [7] = tested on: Pasteurella hemolytica 22C; experiment: MIC, broth-dilution microtiter test (Table X); format: cell-based
# Excerpt: as §1
# [8] = tested on: Pasteurella multocida 17E; experiment: MIC, broth-dilution microtiter test (Table X); format: cell-based; conditions: Bovine isolate
# Excerpt: as §1
# [9] = tested on: Mycoplasma gallisepticum 29C; experiment: MIC, broth-dilution microtiter test (Table X); format: cell-based
# Excerpt: as §1
# Streptococcus sp. 19F = experiment: MIC, broth-dilution microtiter test (Table X); format: cell-based
# Excerpt: as §1
# Klebsiella X26 = experiment: MIC, standard agar-dilution assay (Table IX); format: cell-based
# [10] = tested on: Staphylococcus aureus X400; experiment: MIC, standard agar-dilution assay (Table IX); format: cell-based; conditions: Staphylococcus aureus X400, Methicillin-resistant strain
# [11] = tested on: Staphylococcus epidermidis EPI1; experiment: MIC, standard agar-dilution assay (Table IX); format: cell-based; conditions: Staphylococcus epidermidis EPI1, agar-dilution
# [12] = tested on: Staphylococcus aureus V41; experiment: MIC, standard agar-dilution assay (Table IX); format: cell-based; conditions: Staphylococcus aureus V41, Penicillin-resistant strain
# Escherichia coli N10 = experiment: MIC, standard agar-dilution assay (Table IX); format: cell-based
# [13] = tested on: Haemophilus influenzae C.L.; experiment: MIC, standard agar-dilution assay (Table IX); format: cell-based; conditions: Ampicillin-sensitive strain
# Escherichia coli TEM = experiment: MIC, standard agar-dilution assay (Table IX); format: cell-based
# [14] = tested on: Streptococcus Group D 2041; experiment: MIC, standard agar-dilution assay (Table IX); format: cell-based
# Staphyloccus aureus X1.1 = experiment: MIC, standard agar-dilution assay (Table IX); format: cell-based, Staphylococcus aureus
# Escherichia coli EC14 = experiment: MIC, standard agar-dilution assay (Table IX); format: cell-based
# [15] = tested on: Staphylococcus epidermidis 222; experiment: MIC, standard agar-dilution assay (Table IX); format: cell-based
# [16] = tested on: Haemophilus influenzae 76; experiment: MIC, standard agar-dilution assay (Table IX); format: cell-based; conditions: Haemophilus influenzae 76, Ampicillin-resistant strain
# [17] = tested on: Streptococcus pneumoniae Park I; experiment: MIC, standard agar-dilution assay (Table IX); format: cell-based; conditions: Streptococcus pneumoniae Park I, agar-dilution
# [18] = tested on: Streptococcus pyogenes C203; experiment: MIC, standard agar-dilution assay (Table IX); format: cell-based
# [19] = Mesomycoplasma hyopneumoniae, read-out: MIC
# [20] = Mycoplasmopsis synoviae, read-out: MIC
# [21] = Mycoplasmoides gallisepticum, read-out: MIC
# [22] = Staphylococcus aureus, read-out: MIC
compound,measurement,setting,value
"CCC1OC(=O)CC(O)C(C)C(OC2OC(C)C(O)C(N(C)C)C2O)C(CCN2CCCCCCCCCCCC2)CC(C)C(=O)C=CC(C)=CC1COC1OC(C)C(O)C(OC)C1OC (stereo not shown) [Compound D10, 20-DH-DO-20-(azacyclotridecan-1-yl)desmycosin]",MIC,[1]; read-out: MIC,4 µg/mL
same,pKa,[2]; Titratable groups,9.5
same,pKa,[2]; Titratable groups (first value),8
same,Number of Deaths/Number Treated,Pasteurella multocida,10/10
same,MIC,"[3]; Staphylococcus aureus, S13E",0.25 µg/mL
same,ED50,"[4]; C203, Oral",68 mg/kg
same,ED50,"[4]; C203, sc, Subcutaneous",< 10 mg/kg
same,MIC,[5]; [19],0.78 µg/mL
same,MIC,[6]; read-out: MIC,3.12 µg/mL
same,MIC,Mycoplasma hyorhinis 29E; read-out: MIC,12.5 µg/mL
same,MIC,Staphylococcus aureus; read-out: MIC,0.39 µg/mL
same,MIC,Mycoplasma synoviae 40A; [20],≤ 0.048 µg/mL
same,MIC,[7]; read-out: MIC,1.56 µg/mL
same,MIC,[8]; read-out: MIC,1.56 µg/mL
same,MIC,[9]; [21],0.097 µg/mL
same,MIC,Streptococcus sp. 19F; read-out: MIC,0.78 µg/mL
same,MIC,Klebsiella X26; read-out: MIC,16 µg/mL
same,MIC,[10]; read-out: MIC,0.25 µg/mL
same,MIC,[11]; read-out: MIC,0.25 µg/mL
same,MIC,[12]; read-out: MIC,0.25 µg/mL
same,MIC,Escherichia coli N10; read-out: MIC,32 µg/mL
same,MIC,[13]; read-out: MIC,4 µg/mL
same,MIC,Escherichia coli TEM; read-out: MIC,8 µg/mL
same,MIC,"[14]; GROUPD2041, read-out: MIC",4 µg/mL
same,MIC,Staphyloccus aureus X1.1; [22],0.25 µg/mL
same,MIC,Escherichia coli EC14; read-out: MIC,64 µg/mL
same,MIC,[15]; read-out: MIC,0.12 µg/mL
same,MIC,[16]; read-out: MIC,8 µg/mL
same,MIC,[17]; read-out: MIC,0.25 µg/mL
"CCC1OC(=O)CC(O)C(C)C(OC2OC(C)C(O)C(N(C)C)C2O)C(CCN2CC=C(c3ccccc3)CC2)CC(C)C(=O)C=CC(C)=CC1COC1OC(C)C(O)C(OC)C1OC (stereo not shown) [Compound D26, 20-DH-DO-20-(4-phenyl-1,2,3,6-tetrahydropyridin-1-yl)desmycosin]",MIC,[1]; read-out: MIC,1 µg/mL
same,Number of Deaths/Number Treated,Pasteurella multocida,10/10
same,MIC,[18]; read-out: MIC,0.25 µg/mL
same,MIC,"[3]; Staphylococcus aureus, S13E",0.5 µg/mL
same,ED50,"[4]; C203, Oral",12.5 mg/kg
same,ED50,"[4]; C203, sc, Subcutaneous",5.61 mg/kg
same,MIC,[5]; [19],0.78 µg/mL
same,MIC,[6]; read-out: MIC,12.5 µg/mL
same,MIC,Mycoplasma hyorhinis 29E; read-out: MIC,25 µg/mL
same,MIC,Staphylococcus aureus; read-out: MIC,3.12 µg/mL
same,MIC,Mycoplasma synoviae 40A; [20],0.78 µg/mL
same,MIC,[7]; read-out: MIC,12.5 µg/mL
same,MIC,[8]; read-out: MIC,6.25 µg/mL
same,MIC,[9]; [21],≤ 0.048 µg/mL
same,MIC,Streptococcus sp. 19F; read-out: MIC,0.78 µg/mL
same,MIC,Klebsiella X26; read-out: MIC,64 µg/mL
same,MIC,[10]; read-out: MIC,0.5 µg/mL
same,MIC,[11]; read-out: MIC,0.5 µg/mL
same,MIC,[12]; read-out: MIC,0.5 µg/mL
same,MIC,Escherichia coli N10; read-out: MIC,128 µg/mL
same,MIC,[13]; read-out: MIC,32 µg/mL
same,MIC,Escherichia coli TEM; read-out: MIC,32 µg/mL
same,MIC,"[14]; GROUPD2041, read-out: MIC",2 µg/mL
same,MIC,Staphyloccus aureus X1.1; [22],0.5 µg/mL
same,MIC,Escherichia coli EC14; read-out: MIC,128 µg/mL
same,MIC,[15]; read-out: MIC,0.25 µg/mL
same,MIC,[16]; read-out: MIC,8 µg/mL
same,MIC,[17]; read-out: MIC,0.25 µg/mL
"CCC1OC(=O)CC(O)C(C)C(OC2OC(C)C(O)C(N(C)C)C2O)C(CCN2CCC(C)CC(C)(C)C2)CC(C)C(=O)C=CC(C)=CC1COC1OC(C)C(O)C(OC)C1OC (single isomer, unassigned) [Compound D24, 20-DH-DO-20-(3,3,5-Trimethylhexahydroazepin-1-yl)desmycosin]",MIC,[1],4 µg/mL
same,Titratable groups,[2],9.4
same,Titratable groups (first value),[2],7.9
same,Number of Deaths/Number Treated,Pasteurella multocida,2/10
same,MIC,[18],0.25 µg/mL
same,MIC,"[3]; Staphylococcus aureus S13E, agar-dilution",0.5 µg/mL
same,MIC,[5],0.78 µg/mL
same,MIC,[6],6.25 µg/mL
same,MIC,Mycoplasma hyorhinis 29E,25 µg/mL
same,MIC,Staphylococcus aureus,3.12 µg/mL
same,MIC,Mycoplasma synoviae 40A,0.097 µg/mL
same,MIC,[7],6.25 µg/mL
same,MIC,[8],12.5 µg/mL
same,MIC,[9],0.39 µg/mL
same,MIC,Streptococcus sp. 19F,3.12 µg/mL
same,MIC,Klebsiella X26,128 µg/mL
same,MIC,[10],1 µg/mL
same,MIC,[11],0.5 µg/mL
same,MIC,[12],0.5 µg/mL
same,MIC,Escherichia coli N10,64 µg/mL
same,MIC,[13],32 µg/mL
same,MIC,Escherichia coli TEM,32 µg/mL
same,MIC,[14],8 µg/mL
same,MIC,Staphyloccus aureus X1.1,0.5 µg/mL
same,MIC,Escherichia coli EC14,64 µg/mL
same,MIC,[15],0.25 µg/mL
same,MIC,[16],8 µg/mL
same,MIC,[17],1 µg/mL
